{
  "source": "patent US20250073202A1",
  "about": "“METHODS TO TREAT RENAL DISORDERS USING CALCIUM CHANNEL INHIBITORS” (The Trustees of Indiana University, priority 2018, published 2025)",
  "key": {"[1]": {"tested_on": "glycerol-induced kidney injury", "test": "Glycerol-induced kidney injury (rhabdomyolysis model of AKI) in rats, 24 hours following injection", "type": "in vivo, rat", "text": "Rats were allowed to recover for various periods of time as described in the Results. In Study I, lymphocytes were studied in vitro after recovery for either 2 or 7 days following I/R or sham surgery for evaluation of function in vitro or for FACS analysis. In Study II, the effect of SOCE on kidney injury was studied with the inhibitor YM58483/BPT2 (N-[4-[3,5-Bis(trifluoromethyl)-1H-pyrazol-1-yl]phenyl]-4-methyl-1,2,3-thiadiazole-5-carboxamide; Tocris/Bio-Techne Minneapolis, MN). Rats were pretreated p.o. 2-3 hours prior to surgery with YM58483.BPT2 (1 mg·kg^−1) in sugar-free chocolate pudding following dilution in 100% EtOH, at, a dose previously shown to affect T cell activation in rats. In some experiments, rats were also treated with the IL17Rc (150 ng/day i.p; R&D Systems). In addition, one experiment utilized a model of rhabdomyolysis, induced by injection of 50% glycerol (10 ml/kg) into the hindlimb muscle of rats following 16 hours of water restriction.\nTo measure creatinine, tail blood was collected in heparin containing tubes and centrifuged to collect plasma. Plasma creatinine was measured using a Pointe Scientific Analyzer and Creatinine Assay reagents using methods outlined by the manufacturer (Pointe Scientific, Canton MI). Urine was collected for 24 hours by placing rats in metabolic cages and urine volume was determined gravimetrically. Urine creatinine was measured using a colorimetric assay adopted for microplate readers. Creatinine clearance was measured using UCr*V/PCr.\nFreshly harvested kidneys were minced and digested in liberase (2 μg/ml. Roche, Indianapolis IN) for 15 min at 37° C. using Gentle MACs (Miltenyli, San Diego, CA). The digested tissue was filtered through a 100-μm mesh and washed with RPMI containing 10% fetal bovine serum (Invitrogen). Mononuclear cells were isolated using Percol (Sigma) density gradient centrifugation.\n(§1) To evaluate protein expression of IL17 or Orai1, Orai2 or Orai3, cells were restimulated with PMA and ionomycin for 6 hours in the presence of monensin (Golgistop, 1 μg·ml, BD Biosciences) permeabilized with saponin ([…]) and stained with relevant antibody. Cells were scanned using flow cytometry (FACSCalibur, BD Biosciences, San Jose, CA) and scans were analyzed using Flowjo software (Tree Star, Ashland, OR)."}, "AKI-primed CD4+ cells [2]": {"tested_on": "AKI-primed CD4+ cells", "test": "In vitro stimulation of AKI-primed kidney CD4+ cells with Ang II and elevated Na+, IL17 response", "type": "cell-based, rat", "details": "inhibitor 10 μM; Ang II 10^-7 M and 170 mM Na+; 12-14 hours; cells 7 days post I/R", "procedure": "Total RNA was obtained from kidney using Trizol and the Zymogen RNA extraction kit and cDNA was prepared using MMLV enzyme (Invitrogen, Carlsburg, CA). Quantitative real time PCR (qPCR) using gene specific primers was performed using ABI 7500 (Applied Biosystems, Foster City, CA). mRNA values were calculated using 2^−ΔΔCt. Specific primers sequences for IL-6 (catalog #Rn01410330_m1), Kim-1 (#Rn00597703_m1) and IL17 (Rn01757168_m1) were purchased from ThermoFisher (Waltham, MA).\nas §1\nCD4+T cells were isolated using the MACS Pan-T cell microbead separation kit (Miltenyl, Glabach, Germany). T cells were stimulated with plate bound anti-CD3 (precoated with 2 μg/mL) and soluble anti-CD28 (1 μg/mL). Cells (2.5×10^5 in 0.25 ml) were incubated 12-14 hours at 37° C. in RPMI medium supplemented with 10% FBS (Invitrogen) in a 48-well plate. Cells were challenged with Ang II (Sigma, 10^−7M) and raising the extracellular Na+ from 140 mM to 170 mM, using a 1 M NaCl solution. Calcium channel inhibitors 2ABP (10 μM, Sigma) AnCoA4 (10 μM, Millipore, Burlington, MA) and YM58483/BTP2 (10 μM) were included to evaluate effects on IL-17."}, "AKI-primed CD4+ cells [3]": {"tested_on": "AKI-primed CD4+ cells", "test": "Fura-2 imaging of intracellular Ca2+ responses in AKI-primed CD4+ cells", "type": "cell-based, rat", "details": "superfusate with Ang II and elevated Na+; to levels similar to sham", "procedure": "To assess Ca^2+ responses, fura2 imaging was performed. Briefly, isolated CD4+ T cells were loaded with fura-2AM (2.5 μM, Sigma, St. Louis, MO) for 45 min, washed, placed on poly-lysine (Sigma) coated coverslips and placed in a superfusion chamber with physiological salt solution (PSS) containing 2 mM Ca^2+. The chamber was mounted on an inverted epifluorescence microscope and signal measured with alternating excitation at 340 and 380 nm and emission at 510 nm using the InCa^2+-imaging system (Intracellular Imaging Systems, Cincinnati, OH). Data were acquired at 1.5 Hz and representative tracings were smoothed to the 10 nearest neighbor points using GraphPad Prism. For analysis, an increase in signal intensity of >1 standard deviation from baseline was considered a positive response. Frequency of responding cells was determined from an average 53±19 cells for each animal."}, "[4]": {"details": "24 hours following glycerol injection, mean ± S.E."}},
  "note": "Marks after values point to notes of the source that are not given here.",
  "data": [
    {"smiles": "Cc1nnsc1C(=O)Nc1ccc(-n2nc(C(F)(F)F)cc2C(F)(F)F)cc1", "note": "[YM58483/BPT2, N-[4-[3,5-Bis(trifluoromethyl)-1H-pyrazol-1-yl]phenyl]-4-methyl-1,2,3-thiadiazole-5-carboxamide]", "values": [
      {"measurement": "CD4+ cells per g", "setting": "[1]; [4]", "value": "177606 ± 282", "unit": "cells per g"},
      {"measurement": "CD4+/IL-17+ cells per g", "setting": "[1]; [4]", "value": "20622 ± 4191* cells per g"},
      {"measurement": "CD8+ cells per g", "setting": "[1]; [4]", "value": "342433 ± 76011", "unit": "cells per g"},
      {"measurement": "CD8+/IL-17+ cells per g", "setting": "[1]; [4]", "value": "19711 ± 6499* cells per g"},
      {"measurement": "Serum Creatinine", "setting": "[1]; [4]", "value": "3.3 ± 0.4* mg/dl"},
      {"measurement": "Total IL-17+ cells per g", "setting": "[1]; [4]", "value": "60109 ± 21033* cells per g"},
      {"measurement": "rise in serum creatinine", "setting": "[1]; glycerol model, 24 hours", "value": "significantly attenuated"},
      {"measurement": "total number of IL17+ expressing cells", "setting": "[1]; glycerol model, 24 hours", "value": "significantly attenuated"},
      {"measurement": "increase in IL17+ cells (IL17 protein, FACS)", "setting": "AKI-primed CD4+ cells [2]", "value": "completely blocked"},
      {"measurement": "increase of IL17 mRNA", "setting": "AKI-primed CD4+ cells [2]", "value": "completely blocked"},
      {"measurement": "percentage of Ca2+-responding cells", "setting": "AKI-primed CD4+ cells [3]", "value": "significantly attenuated"}
    ]}
  ]
}
